Results on one molecule are retold here after patent publication US8460274B2, “Long term drug delivery devices with polyurethane-based polymers and their manufacture” (Endo Pharmaceuticals Solutions Inc., priority 2008, dated 2013).

Each structure is given as a SMILES string. Where a name gives a salt, the structure may show the parent alone.

The data set is described as follows: Release rates of active agents from Tecophilic, Tecoflex and Carbothane polyurethane implants (Example 6). The format is physicochemical.
Setting [1] is: Carbothane PC-3595A, F.M.: 4,500.

The molecule `C#CCN(C)[C@H](C)Cc1ccccc1` [Selegiline HCL] came in with a non-normalized release rate (Carbothane PC-3575A, F.M.: 620) of 70 µg/day; a non-normalized release rate under setting [1] of 30 µg/day; a non-normalized release rate (Tecoflex EG 100A, F.M.: 10,000) of 14 µg/day; a non-normalized release rate (Tecoflex EG-65D, F.M.: 37,000) of 8 µg/day; a non-normalized release rate (Tecoflex EG-85A, F.M.: 2,300) of 3000 µg/day; a non-normalized release rate (Tecophilic HP-60D-20, 15% EWC) of 600 µg/day. Also, the “release rate normalized to surface area of the implant” value runs as follows: (Carbothane PC-3575A, F.M.: 620) 36 μg/day/cm^2; under setting [1], 15 μg/day/cm^2; (Tecoflex EG 100A, F.M.: 10,000) 7.2 μg/day/cm^2; (Tecoflex EG-65D, F.M.: 37,000) 4.1 μg/day/cm^2; (Tecoflex EG-85A, F.M.: 2,300) 1518 μg/day/cm^2; (Tecophilic HP-60D-20, 15% EWC) 294 μg/day/cm^2.
